The text below walks through data of publication doi:10.1101/2025.09.18.676322v1 (bioRxiv, 2025).

Residues, ends and D or L forms follow the SMILES beside them.

One data set deals with T1, TREM2 (Homo sapiens, UniProt Q9NZC2).
T1 sequence (Q9NZC2 19-174 limits assumed): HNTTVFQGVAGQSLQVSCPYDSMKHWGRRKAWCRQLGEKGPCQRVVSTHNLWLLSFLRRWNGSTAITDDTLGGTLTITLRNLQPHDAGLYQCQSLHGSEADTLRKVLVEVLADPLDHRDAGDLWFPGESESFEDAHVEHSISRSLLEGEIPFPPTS
Put plainly: Spectral shift assay of TREM2 binding. As to conditions: for TREM2 binding in spectral shift analysis (in words): labeled TREM2 10 nM, PBST pH 7.4, 10 min at room temperature.

For data set [1] the following is noted: reference compound of the assay; cited from earlier work.
Data set [2] is described as follows: Stability in simulated gastric fluid. The class given is in vitro ADME. As to conditions: pH 1.6.
Data set [3] is described as follows: LogD7.4 by miniaturized shake-flask procedure. The class given is physicochemical. As to conditions: miniaturized shake-flask procedure at pH 7.4.
The nature of data set [4]: Stability in rat liver microsomes. It counts as in vitro ADME.
Data set [5] in a line: Stability in simulated intestinal fluid. It counts as in vitro ADME. Conditions: pH 6.5.
Data set [6] can be described thus: Stability in human plasma. The class given is in vitro ADME.
The next data set in a line: Caco-2 cell permeability. It counts as in vitro ADME. For orientation: Caco-2 cells form a polarised layer with tight junctions and transporters.
For data set [7] the following is noted: reference compound of the assay; cited from earlier work. This is another data set of the same source.

As for cyclo(GNSVNVETGARL) [TP1], the “TREM2 binding in spectral shift analysis (in words)” value at TREM2 is “measurable responses”.

For `CC[C@H]1OC(=O)[C@H](C)[C@@H](O[C@H]2C[C@@](C)(OC)[C@@H](O)[C@H](C)O2)[C@H](C)[C@@H](O[C@@H]2O[C@H](C)C[C@H](N(C)C)[C@H]2O)[C@](C)(O)C[C@@H](C)C(=O)[C@H](C)[C@@H](O)[C@]1(C)O` [erythromycin], the “Stability in intestinal simulated fluids, t1/2” value in data set [1] was 7.55 h.

Turning to `CC(C)[C@@H]1NC(=O)CNC(=O)[C@H](C)NC(=O)[C@H](CO)NC(=O)[C@H](C(C)C)NC(=O)[C@H](CO)NC(=O)[C@H](C(C)C)NC(=O)[C@H](C)NC(=O)CNC(=O)[C@H](CC(=O)O)NC(=O)[C@H](CCCCN)NC(=O)[C@H](CCC(=O)O)NC(=O)[C@H]([C@@H](C)O)NC(=O)[C@H]([C@@H](C)O)NC1=O` [TP4] (cyclo(AGVTTEKDGAVSVS); ring closure inferred), the half-life is 0.93 h in data set [2], 3.94 h in [4] and 5.82 h in data set [5]. The LogD7.4 in [3] was 1.03. In addition, the “TREM2 binding in spectral shift analysis (in words)” value at TREM2 is reported as “measurable responses”. Also, at TREM2 (summary statement in the introduction, assay not named), the “equilibrium dissociation constant (Kd), in words” value is given as “sub-millimolar range”. In addition, in [6], the amount remaining at 1 h stood at 83.1%. In addition, the Papp A→B in the data set “Caco-2 cell permeability” turned out to be 1.32 ×10⁻⁶ cm/s. In the data set “Caco-2 cell permeability”, this compound had a Papp B→A of 2.47 ×10⁻⁶ cm/s.

cyclo(LPGRLVSLPDGRHLC) [TP3]: the “TREM2 binding in spectral shift analysis (in words)” value on TREM2 was “did not exhibit detectable binding”.

As to cyclo(GSSVNVQTGEVL) [TP2], the “TREM2 binding in spectral shift analysis (in words)” value on TREM2 is on record as “measurable responses”.

As for `CC(C)[N+](C)(CCOC(=O)C1c2ccccc2Oc2ccccc21)C(C)C` [propantheline], in data set [7], the “Human plasma stability, t1/2” value was 2.6 min.

Broadly, the half-life is how long it takes for the measured level to halve. A high value points to slow loss. As usually defined, the share remaining is what is left of the initial amount, in per cent. Broadly, the Papp A→B is the apparent permeability from the apical to the basolateral side of a cell layer. Low values mean poor permeation, high ones ready permeation. By Papp B→A is commonly meant the apparent permeability from the basolateral to the apical side of a cell layer.
